# ChEMBL document CHEMBL1201862, “PubChem BioAssay data set” (2004)
#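 The compound was tested at five concentrations on cells cultured in 96-well plates, with a 48-hour exposure period. At the GI50, growth is halved.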 The source made the active and inactive calls. No stated cut-off is given here; in the data, active = GI50 up to about 1.1 µM and inactive = higher.
# Assays:
# Assay in all cases: NCI-60 cell line screen, 48 h
# 786-0 = test system: 786-0
# A498 = test system: A498
# A549 = test system: A549
# ACHN = test system: ACHN
# BT-549 = test system: BT-549
# CAKI-1 = test system: CAKI-1
# COLO 205 = test system: COLO 205
# DU-145 = test system: DU-145
# EKVX = test system: EKVX
# HCC 2998 = test system: HCC 2998
# HCT-116 = test system: HCT-116
# HCT-15 = test system: HCT-15
# HL-60 = test system: HL-60
# HOP-92 = test system: HOP-92
# HT-29 = test system: HT-29
# Hs-578T = test system: Hs-578T
# IGROV-1 = test system: IGROV-1
# K562 = test system: K562
# KM12 = test system: KM12
# LOX IMVI = test system: LOX IMVI
# M14 = test system: M14
# MCF7 = test system: MCF7
# MDA-MB-231 = test system: MDA-MB-231
# MDA-MB-435 = test system: MDA-MB-435
# MDA-N = test system: MDA-N
# MOLT-4 = test system: MOLT-4
# Malme-3M = test system: Malme-3M
# NCI-H226 = test system: NCI-H226
# NCI-H23 = test system: NCI-H23
# NCI-H460 = test system: NCI-H460
# NCI-H522 = test system: NCI-H522
# NCI/ADR-RES = test system: NCI/ADR-RES
# OVCAR-3 = test system: OVCAR-3
# OVCAR-4 = test system: OVCAR-4
# OVCAR-5 = test system: OVCAR-5
# OVCAR-8 = test system: OVCAR-8
# PC-3 = test system: PC-3
# RPMI-8226 = test system: RPMI-8226
# RXF 393 = test system: RXF 393
# SF-268 = test system: SF-268
# SF-295 = test system: SF-295
# SF-539 = test system: SF-539
# SK-MEL-28 = test system: SK-MEL-28
# SK-MEL-2 = test system: SK-MEL-2
# SK-MEL-5 = test system: SK-MEL-5
# SK-OV-3 = test system: SK-OV-3
# SN12C = test system: SN12C
# SNB-19 = test system: SNB-19
# SNB-75 = test system: SNB-75
# SR = test system: SR
# SW-620 = test system: SW-620
# T47D = test system: T47D
# TK-10 = test system: TK-10
# U-251 = test system: U-251
# UACC-257 = test system: UACC-257
# UACC-62 = test system: UACC-62
# UO-31 = test system: UO-31
smiles,measurement,setting,value
COc1ccc(/[N+]([O-])=C/c2ccccc2OC(=S)S)cc1,GI50,786-0,24.9 µM (inactive)
same,GI50,A498,26.1 µM (inactive)
same,GI50,A549,> 100 µM (inactive)
same,GI50,ACHN,38.5 µM (inactive)
same,GI50,BT-549,23.2 µM (inactive)
same,GI50,CAKI-1,33.7 µM (inactive)
same,GI50,COLO 205,30.1 µM (inactive)
same,GI50,DU-145,39.9 µM (inactive)
same,GI50,EKVX,40.2 µM (inactive)
same,GI50,HCC 2998,44.5 µM (inactive)
same,GI50,HCT-116,25.5 µM (inactive)
same,GI50,HCT-15,30.6 µM
same,GI50,HL-60,24.3 µM (inactive)
same,GI50,HOP-92,12.4 µM (inactive)
same,GI50,HT-29,22.4 µM (inactive)
same,GI50,Hs-578T,33.7 µM (inactive)
same,GI50,IGROV-1,27.6 µM (inactive)
same,GI50,K562,37.4 µM (inactive)
same,GI50,KM12,31 µM (inactive)
same,GI50,LOX IMVI,20.1 µM (inactive)
same,GI50,M14,25.5 µM (inactive)
same,GI50,MCF7,33.6 µM (inactive)
same,GI50,MDA-MB-231,56.2 µM (inactive)
same,GI50,MDA-MB-435,21.4 µM (inactive)
same,GI50,MDA-N,24.7 µM (inactive)
same,GI50,MOLT-4,37.7 µM (inactive)
same,GI50,Malme-3M,> 100 µM (inactive)
same,GI50,NCI-H226,30.8 µM (inactive)
same,GI50,NCI-H23,27.7 µM (inactive)
same,GI50,NCI-H460,45.1 µM (inactive)
same,GI50,NCI-H522,25.1 µM (inactive)
same,GI50,NCI/ADR-RES,28.1 µM (inactive)
same,GI50,OVCAR-3,28.4 µM (inactive)
same,GI50,OVCAR-4,28.4 µM (inactive)
same,GI50,OVCAR-5,35.9 µM (inactive)
same,GI50,OVCAR-8,18.7 µM (inactive)
same,GI50,PC-3,39.3 µM (inactive)
same,GI50,RPMI-8226,25.6 µM (inactive)
same,GI50,RXF 393,52 µM (inactive)
same,GI50,SF-268,34.8 µM (inactive)
same,GI50,SF-295,33.8 µM (inactive)
same,GI50,SF-539,22.6 µM (inactive)
same,GI50,SK-MEL-28,72.8 µM (inactive)
same,GI50,SK-MEL-2,28.2 µM (inactive)
same,GI50,SK-MEL-5,30.5 µM (inactive)
same,GI50,SK-OV-3,86.1 µM (inactive)
same,GI50,SN12C,24.5 µM (inactive)
same,GI50,SNB-19,51.3 µM (inactive)
same,GI50,SNB-75,62.4 µM (inactive)
same,GI50,SR,28.4 µM (inactive)
same,GI50,SW-620,39.8 µM (inactive)
same,GI50,T47D,41.8 µM (inactive)
same,GI50,TK-10,80.7 µM (inactive)
same,GI50,U-251,46.6 µM (inactive)
same,GI50,UACC-257,29 µM (inactive)
same,GI50,UACC-62,32.6 µM (inactive)
same,GI50,UO-31,24.6 µM (inactive)
